From US20260132127A1, “NOVEL SPIRO COMPOUND” (MITSUBISHI TANABE PHARMA CORPORATION, priority 2021, published 2026) come the findings set out here.

The assay deals with T1, human TRH-DE (Homo sapiens, UniProt Q9UKU6).
T1 construct: expressed in transfected cells; host or cells: Expi 293 cells (transient expression), membrane fraction
T1 sequence (Q9UKU6 1-1069): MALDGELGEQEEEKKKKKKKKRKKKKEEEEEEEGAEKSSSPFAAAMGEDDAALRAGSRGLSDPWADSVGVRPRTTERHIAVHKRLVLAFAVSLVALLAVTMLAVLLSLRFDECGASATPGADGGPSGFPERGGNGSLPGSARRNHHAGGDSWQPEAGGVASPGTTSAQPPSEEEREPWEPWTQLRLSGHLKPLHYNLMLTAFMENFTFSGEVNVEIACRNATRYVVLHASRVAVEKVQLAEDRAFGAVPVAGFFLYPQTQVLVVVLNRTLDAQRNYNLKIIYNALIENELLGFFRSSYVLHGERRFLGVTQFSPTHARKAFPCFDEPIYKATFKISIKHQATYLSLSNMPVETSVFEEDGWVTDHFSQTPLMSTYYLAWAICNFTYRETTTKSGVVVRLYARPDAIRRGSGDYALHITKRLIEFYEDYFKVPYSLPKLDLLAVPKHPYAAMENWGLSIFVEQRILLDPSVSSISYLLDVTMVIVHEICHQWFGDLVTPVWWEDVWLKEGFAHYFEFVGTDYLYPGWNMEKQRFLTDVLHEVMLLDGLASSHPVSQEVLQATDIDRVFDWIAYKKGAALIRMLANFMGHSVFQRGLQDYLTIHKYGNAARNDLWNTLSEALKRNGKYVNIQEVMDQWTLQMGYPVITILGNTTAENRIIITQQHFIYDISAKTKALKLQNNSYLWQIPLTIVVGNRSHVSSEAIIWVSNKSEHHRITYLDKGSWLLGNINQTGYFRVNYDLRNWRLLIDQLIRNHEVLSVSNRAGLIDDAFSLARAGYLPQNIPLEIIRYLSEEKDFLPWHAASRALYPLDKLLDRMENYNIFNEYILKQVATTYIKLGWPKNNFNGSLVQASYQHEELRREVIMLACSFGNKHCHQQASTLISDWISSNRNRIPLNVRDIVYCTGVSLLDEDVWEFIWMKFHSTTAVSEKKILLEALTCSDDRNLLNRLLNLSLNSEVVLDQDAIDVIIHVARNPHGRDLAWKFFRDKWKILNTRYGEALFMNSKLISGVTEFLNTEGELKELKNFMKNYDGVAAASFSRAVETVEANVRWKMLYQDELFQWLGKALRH
Description: TRH-DE inhibition test (RapidFire MS measurement of product Cyclo (His-Pro)). The assay is classed as biochemical. The settings on record: membrane fraction of Expi 293 cells expressing human TRH-DE; 10 μM TRH substrate; room temperature, 2 hours; 16-point concentration test. In short, it runs like this: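 Inhibition derived from product/internal-standard ratios of Cyclo(His-Pro), quantified by RapidFire triple-quadrupole MS after acetonitrile:methanol quench, with IC50 fitted over 16 concentrations. Enzyme source: membranes of Expi 293 cells transiently expressing human TRH-DE, 4 μg/ml, pH 7.4 phosphate buffer. Incubation with 10 μM substrate ran 2 h at room temperature.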
The term IC50 denotes the midpoint of a concentration-inhibition curve. The low end stands for greater potency, the high end for weaker potency. Turning to `Cc1nnc2n1CC[C@@H](C)N(C1CC3(C1)CN(S(=O)(=O)c1ccccc1F)C3)C2=O` [Example 260, (7R)-8-[2-(2-fluorophenyl)sulfonyl-2-azaspiro[3.3]heptan-6-yl]-3,7-dimethyl-6,7-dihydro-5H-[1,2,4]triazolo[4,3-a][1,4]diazepin-9-one], it took 0.097 µM to reach half-maximal inhibition (IC50). Next, `C[C@@H]1CCn2c(nnc2C2CC2)C(=O)N1C1CC2(C1)CN(S(=O)(=O)c1ccccc1F)C2` [Example 261]: 0.028 µM; `C[C@@H]1CCn2c(nnc2C(C)(C)C)C(=O)N1C1CC2(C1)CN(S(=O)(=O)c1ccccc1F)C2` [Example 262]: 0.091 µM; `C[C@@H]1CCn2c(nnc2-c2ccccc2)C(=O)N1C1CC2(C1)CN(S(=O)(=O)c1ccccc1F)C2` [Example 263]: 0.032 µM.

Molecule `Cc1nnc2n1C[C@@H](C)N(C1CC3(C1)CN(S(=O)(=O)c1ccccc1F)C3)C2=O` [Example 264] registered an IC50 of 0.459 µM. Next, `C[C@@H]1Cn2c(nnc2C2CC2)C(=O)N1C1CC2(C1)CN(S(=O)(=O)c1ccccc1F)C2` [Example 265]: 0.287 µM.

In turn, `CC1c2ccccc2C(=O)N1C1CC2(C1)CN(S(=O)(=O)c1ccccc1F)C2` (centres unmarked) [Example 266, 2-[2-(2-fluorophenyl)sulfonyl-2-azaspiro[3.3]heptan-6-yl]-3-methyl-isoindolin-1-one] had an IC50 of 0.092 µM. Against the preceding molecule, the IC50 is about 3.1-fold lower.

As to `CC1(O)c2cc(C(F)(F)F)cnc2C(=O)N1C1CC2(C1)CN(S(=O)(=O)c1ccccc1F)C2` (centres unmarked) [Example 275, 6-[2-(2-fluorophenyl)sulfonyl-2-azaspiro[3.3]heptan-6-yl]-5-hydroxy-5-methyl-3-(trifluoromethyl)pyrrolo[3,4-b]pyridin-7-one], the half-inhibitory concentration (IC50) amounted to 0.042 µM. In turn, `CC1(O)c2ccccc2C(=O)N1C1CC2(C1)CN(S(=O)(=O)c1ccccc1F)C2` (centres unmarked) [Example 283, 2-[2-(2-fluorophenyl)sulfonyl-2-azaspiro[3.3]heptan-6-yl]-3-hydroxy-3-methyl-isoindolin-1-one] displayed a half-maximal inhibitory concentration (IC50) of 0.067 µM. The value for `CC1c2cc(C(F)(F)F)cnc2C(=O)N1C1CC2(C1)CN(S(=O)(=O)c1ccccc1F)C2` (centres unmarked) [Example 290, 6-[2-(2-fluorophenyl)sulfonyl-2-azaspiro[3.3]heptan-6-yl]-5-methyl-3-(trifluoromethyl)-5H-pyrrolo[3,4-b]pyridin-7-one] was 0.104 µM. Take `CC1c2ccncc2C(=O)N1C1CC2(C1)CN(S(=O)(=O)c1ccccc1F)C2` (centres unmarked) [Example 296, 2-[2-(2-fluorophenyl)sulfonyl-2-azaspiro[3.3]heptan-6-yl]-1-methyl-1H-pyrrolo[3,4-c]pyridin-3-one]: the IC50 was 0.419 µM. `C[C@@H]1COc2c(noc2Br)C(=O)N1C1CC2(C1)CN(S(=O)(=O)c1ccccc1F)C2` [Example 297, (6R)-3-bromo-7-[2-(2-fluorophenyl)sulfonyl-2-azaspiro[3.3]heptan-6-yl]-6-methyl-5,6-dihydroisoxazolo[3,4-f][1,4]oxazepin-8-one]: the IC50 came out at 0.018 µM. Against the preceding molecule, the IC50 is about 23-fold lower. Next, `C[C@@H]1Cn2c(Br)nc(C3CC3)c2C(=O)N1C1CC2(C1)CN(S(=O)(=O)c1ccccc1F)C2` [Example 298]: 0.025 µM; `C[C@@H]1CCn2c(C3CC3)nc(Cl)c2C(=O)N1C1CC2(C1)CN(S(=O)(=O)c1ccccc1F)C2` [Example 299]: 0.033 µM; `CC1CC(F)(F)c2ncccc2C(=O)N1C1CC2(C1)CN(S(=O)(=O)c1ccccc1F)C2` (centres unmarked) [Example 300, 9,9-Difluoro-6-[2-(2-fluorophenyl)sulfonyl-2-azaspiro[3.3]heptan-6-yl]-7-methyl-7,8-dihydropyrido[3,2-c]azepin-5-one]: 0.168 µM. The value for `CC1C=C(F)c2ncccc2C(=O)N1C1CC2(C1)CN(S(=O)(=O)c1ccccc1F)C2` (centres unmarked) [Example 301, 9-fluoro-6-[2-(2-fluorophenyl)sulfonyl-2-azaspiro[3.3]heptan-6-yl]-7-methyl-7H-pyrido[3,2-c]azepin-5-one] was 0.091 µM; that for `CC(=O)N1C[C@@H](C)N(C2CC3(C2)CN(S(=O)(=O)c2ccccc2F)C3)C(=O)c2ncccc21` [Example 302, (3R)-1-acetyl-4-[2-(2-fluorophenyl)sulfonyl-2-azaspiro[3.3]heptan-6-yl]-3-methyl-2,3-dihydropyrido[3,2-e][1,4]diazepin-5-one] was 0.047 µM; that for `CCC(=O)N1C[C@@H](C)N(C2CC3(C2)CN(S(=O)(=O)c2ccccc2F)C3)C(=O)c2ncccc21` [Example 303] was 0.082 µM. As for `CCCC(=O)N1C[C@@H](C)N(C2CC3(C2)CN(S(=O)(=O)c2ccccc2F)C3)C(=O)c2ncccc21` [Example 304], the IC50 came out at 1.07 µM. Next, `CC(C)C(=O)N1C[C@@H](C)N(C2CC3(C2)CN(S(=O)(=O)c2ccccc2F)C3)C(=O)c2ncccc21` [Example 305]: 0.062 µM. The value for `C[C@@H]1CN(C(=O)C2CC2)c2cccnc2C(=O)N1C1CC2(C1)CN(S(=O)(=O)c1ccccc1F)C2` [Example 306] was 0.056 µM; that for `COCC(=O)N1C[C@@H](C)N(C2CC3(C2)CN(S(=O)(=O)c2ccccc2F)C3)C(=O)c2ncccc21` [Example 307] was 0.285 µM; that for `C[C@@H]1CN(C(=O)c2ccccc2)c2cccnc2C(=O)N1C1CC2(C1)CN(S(=O)(=O)c1ccccc1F)C2` [Example 308] was 0.655 µM. Take `C[C@@H]1CCn2cncc2C(=O)N1C1CC2(C1)CN(S(=O)(=O)c1ccccc1F)C2` [Example 309, (7R)-8-[2-(2-fluorophenyl)sulfonyl-2-azaspiro[3.3]heptan-6-yl]-7-methyl-6,7-dihydro-5H-imidazo[1,5-a][1,4]diazepin-9-one]: the IC50 came out at 0.032 µM. In turn, `C[C@@H]1CCn2cnc(C3CC3)c2C(=O)N1C1CC2(C1)CN(S(=O)(=O)c1ccccc1F)C2` [Example 310] came in with an IC50 of 0.041 µM.

In turn, `C[C@@H]1COc2cc(C3CC3)cnc2C(=O)N1C1CC2(C1)CN(S(=O)(=O)c1ccccc1F)C2` [Example 311] came in with an IC50 of 0.001 µM. Compared with the last molecule, the IC50 is about 41-fold lower.

`Cc1cc2c(cn1)C(=O)N(C1CC3(C1)CN(S(=O)(=O)c1ccccc1F)C3)[C@H](C)CO2` [Example 312] yielded an IC50 of 0.002 µM. Next, `C[C@@H]1COc2cc(C3CC3)ncc2C(=O)N1C1CC2(C1)CN(S(=O)(=O)c1ccccc1F)C2` [Example 313]: 0.001 µM.

For `Cc1ccc2c(n1)OC[C@@H](C)N(C1CC3(C1)CN(S(=O)(=O)c1ccccc1F)C3)C2=O` [Example 314], the midpoint of inhibition, the IC50, lay at 0.009 µM. Compared with the last molecule, the IC50 is about 9-fold higher. In turn, `C[C@@H]1COc2ncc(C3CC3)cc2C(=O)N1C1CC2(C1)CN(S(=O)(=O)c1ccccc1F)C2` [Example 315] returned a half-maximal inhibitory concentration (IC50) of 0.003 µM.

Molecule `C[C@@H]1COc2nc(C3CC3)ccc2C(=O)N1C1CC2(C1)CN(S(=O)(=O)c1ccccc1F)C2` [Example 316] returned an IC50 of 0.002 µM.

With `Cc1nc2c(cc1F)C(=O)N(C1CC3(C1)CN(S(=O)(=O)c1ccccc1F)C3)[C@H](C)CO2` [Example 317], the IC50 came to 0.003 µM. The value for `Cc1ncc2c(n1)OC[C@@H](C)N(C1CC3(C1)CN(S(=O)(=O)c1ccccc1F)C3)C2=O` [Example 318] was 0.009 µM. Molecule `C[C@@H]1CCn2ncc(C3CC3)c2C(=O)N1C1CC2(C1)CN(S(=O)(=O)c1ccccc1F)C2` [Example 319] came in with a concentration for half-maximal inhibition (IC50) of 0.022 µM. The value for `C[C@@H]1CCn2nc(F)c(C3CC3)c2C(=O)N1C1CC2(C1)CN(S(=O)(=O)c1ccccc1F)C2` [Example 320] was 0.072 µM; that for `C[C@@H]1COc2nn(C)c(C3CC3)c2C(=O)N1C1CC2(C1)CN(S(=O)(=O)c1ccccc1F)C2` [Example 321] was 0.074 µM; that for `C[C@@H]1CCn2c(cnc2C2CC2)C(=O)N1C1CC2(C1)CN(S(=O)(=O)c1ccccc1F)C2` [Example 322] was 0.007 µM. The value for `Cc1nc(C2CC2)n2c1C(=O)N(C1CC3(C1)CN(S(=O)(=O)c1ccccc1F)C3)[C@H](C)CC2` [Example 323] was 0.103 µM; that for `Cc1onc2c1OC[C@@H](C)N(C1CC3(C1)CN(S(=O)(=O)c1ccccc1F)C3)C2=O` [Example 324] was 0.037 µM; that for `C[C@@H]1COc2c(noc2C2CC2)C(=O)N1C1CC2(C1)CN(S(=O)(=O)c1ccccc1F)C2` [Example 325] was 0.017 µM. Next, `C[C@@H]1Cn2ncc(C3CC3)c2C(=O)N1C1CC2(C1)CN(S(=O)(=O)c1ccccc1F)C2` [Example 326]: 0.004 µM.
